Measurements as given in PubChem BioAssay AID1845208 (Molecular Pharmacology Branch, DTP, NCI, 2023).

Tested on: NCI-H196 SCLC complex tumor spheroid viability
Assay: Anticancer human tumor NCI-H196 cell line growth inhibition;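 further: spheroids exposed to compounds for 7 days before readout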;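 on viability, T/C: 100% = DMSO vehicle control wells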
Details: for IC50: curve of first compound; for viability, T/C: stronger effect = lower value
Outline: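 Complex tumor spheroids combined malignant cells with endothelial cells and mesenchymal stem cells. DNA-damaging drugs and DNA repair inhibitors were tested alone and in combination, at half-log dilutions down from clinical Cmax (top 10 microM if Cmax unknown), 0.25% DMSO final.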

[1] = second compound 30 pM, first compound 0.00949 µM
[2] = second compound 30 pM, first compound 0.03 µM
[3] = second compound 30 pM, first compound 0.0949 µM
[4] = second compound 30 pM, first compound 0.3 µM
[5] = second compound 30 pM, first compound 0.949 µM
[6] = second compound 30 pM, first compound 3 µM
[7] = second compound 94.9 pM, first compound 0.00949 µM
[8] = second compound 94.9 pM, first compound 0.03 µM
[9] = second compound 94.9 pM, first compound 0.0949 µM
[10] = second compound 94.9 pM, first compound 0.3 µM
[11] = second compound 94.9 pM, first compound 0.949 µM
[12] = second compound 94.9 pM, first compound 3 µM
[13] = second compound 0.0003 µM, first compound 0.00949 µM
[14] = second compound 0.0003 µM, first compound 0.03 µM
[15] = second compound 0.0003 µM, first compound 0.0949 µM
[16] = second compound 0.0003 µM, first compound 0.3 µM
[17] = second compound 0.0003 µM, first compound 0.949 µM
[18] = second compound 0.0003 µM, first compound 3 µM
[19] = second compound 0.000949 µM, first compound 0.00949 µM
[20] = second compound 0.000949 µM, first compound 0.03 µM
[21] = second compound 0.000949 µM, first compound 0.0949 µM
[22] = second compound 0.000949 µM, first compound 0.3 µM
[23] = second compound 0.000949 µM, first compound 0.949 µM
[24] = second compound 0.000949 µM, first compound 3 µM
[25] = second compound 0.003 µM, first compound 0.00949 µM
[26] = second compound 0.003 µM, first compound 0.03 µM
[27] = second compound 0.003 µM, first compound 0.0949 µM
[28] = second compound 0.003 µM, first compound 0.3 µM
[29] = second compound 0.003 µM, first compound 0.949 µM
[30] = second compound 0.003 µM, first compound 3 µM

For `CNCc1ccc(-c2cc(-c3nc(-c4ccc(S(=O)(=O)C(C)C)cc4)cnc3N)on2)cc1` + COc1cc2c(cc1O)CCNC21CSC2c3c(OC(C)=O)c(C)c4c(c3C(COC1=O)N1C(O)C3Cc5cc(C)c(OC)c(O)c5C(C21)N3C)OCO4, the IC50 (second compound 30 pM) was greater than 3 µM, the IC50 (second compound 94.9 pM) was greater than 3 µM and the IC50 (second compound 0.0003 µM) was greater than 3 µM. For the same molecule, the IC50 (second compound 0.000949 µM) was greater than 3 µM, the IC50 (second compound 0.003 µM) was less than 0.00949 µM and the viability, T/C [1] was 107%. The viability, T/C [2] was 99%, the viability, T/C [3] was 104% and the viability, T/C [4] was 103%. The viability, T/C [5] was 98%, the viability, T/C [6] was 91.4% and the viability, T/C [7] was 105%. It also gave a viability, T/C [8] of 107%, a viability, T/C [9] of 103% and a viability, T/C [10] of 107%. For the same molecule, the viability, T/C [11] was 96.4%, the viability, T/C [12] was 95.9% and the viability, T/C [13] was 112%. For the same molecule, the viability, T/C [14] was 112%, the viability, T/C [15] was 112% and the viability, T/C [16] was 105%. It also gave a viability, T/C [17] of 96.4%, a viability, T/C [18] of 93.3% and a viability, T/C [19] of 99.2%. It also gave a viability, T/C [20] of 103%, a viability, T/C [21] of 103% and a viability, T/C [22] of 94.3%. The viability, T/C [23] was 91.3%, the viability, T/C [24] was 86.6% and the viability, T/C [25] was 9.83%. For the same molecule, the viability, T/C [26] was 26.7%, the viability, T/C [27] was 27.7% and the viability, T/C [28] was 13.2%. For the same molecule, the viability, T/C [29] was 18.2% and the viability, T/C [30] was 40.3%.

In the case of `Cc1cc(C)c(CNC(=O)c2cc(-c3ccc(CN4CCOCC4)cc3)cc3c2cnn3C2CCCC2)c(=O)[nH]1` + COc1cc2c(cc1O)CCNC21CSC2c3c(OC(C)=O)c(C)c4c(c3C(COC1=O)N1C(O)C3Cc5cc(C)c(OC)c(O)c5C(C21)N3C)OCO4, the IC50 (second compound 30 pM) is reported as greater than 10 µM, the IC50 (second compound 94.9 pM) is reported as greater than 10 µM and the IC50 (second compound 0.0003 µM) is reported as greater than 10 µM. It also gave an IC50 (second compound 0.000949 µM) greater than 10 µM, an IC50 (second compound 0.003 µM) of less than 0.0316 µM and a viability, T/C (second compound 30 pM, first compound 0.0316 µM) of 106%. It also gave a viability, T/C (second compound 30 pM, first compound 0.1 µM) of 104%, a viability, T/C (second compound 30 pM, first compound 0.316 µM) of 105% and a viability, T/C (second compound 30 pM, first compound 1 µM) of 103%. For the same molecule, the viability, T/C (second compound 30 pM, first compound 3.16 µM) was 97.2%, the viability, T/C (second compound 30 pM, first compound 10 µM) was 105% and the viability, T/C (second compound 94.9 pM, first compound 0.0316 µM) was 109%. The viability, T/C (second compound 94.9 pM, first compound 0.1 µM) was 101%, the viability, T/C (second compound 94.9 pM, first compound 0.316 µM) was 99.5% and the viability, T/C (second compound 94.9 pM, first compound 1 µM) was 104%. The viability, T/C (second compound 94.9 pM, first compound 3.16 µM) was 107%, the viability, T/C (second compound 94.9 pM, first compound 10 µM) was 106% and the viability, T/C (second compound 0.0003 µM, first compound 0.0316 µM) was 103%. The viability, T/C (second compound 0.0003 µM, first compound 0.1 µM) was 105%, the viability, T/C (second compound 0.0003 µM, first compound 0.316 µM) was 105% and the viability, T/C (second compound 0.0003 µM, first compound 1 µM) was 105%. The viability, T/C (second compound 0.0003 µM, first compound 3.16 µM) was 102%, the viability, T/C (second compound 0.0003 µM, first compound 10 µM) was 104% and the viability, T/C (second compound 0.000949 µM, first compound 0.0316 µM) was 87.8%. For the same molecule, the viability, T/C (second compound 0.000949 µM, first compound 0.1 µM) was 94.6%, the viability, T/C (second compound 0.000949 µM, first compound 0.316 µM) was 91.8% and the viability, T/C (second compound 0.000949 µM, first compound 1 µM) was 83.9%. It also gave a viability, T/C (second compound 0.000949 µM, first compound 3.16 µM) of 85%, a viability, T/C (second compound 0.000949 µM, first compound 10 µM) of 85% and a viability, T/C (second compound 0.003 µM, first compound 0.0316 µM) of 6.27%. It also gave a viability, T/C (second compound 0.003 µM, first compound 0.1 µM) of 7.07%, a viability, T/C (second compound 0.003 µM, first compound 0.316 µM) of 9.74% and a viability, T/C (second compound 0.003 µM, first compound 1 µM) of 5.44%. For the same molecule, the viability, T/C (second compound 0.003 µM, first compound 3.16 µM) was 5.81% and the viability, T/C (second compound 0.003 µM, first compound 10 µM) was 3.71%.

`Cc1sc2c(c1C)C(c1ccc(Cl)cc1)=NC(CC(=O)Nc1ccc(O)cc1)c1nnc(C)n1-2` (stereo not given) + COc1cc2c(cc1O)CCNC21CSC2c3c(OC(C)=O)c(C)c4c(c3C(COC1=O)N1C(O)C3Cc5cc(C)c(OC)c(O)c5C(C21)N3C)OCO4 was tested, and the IC50 (second compound 30 pM) was 0.631 µM, the IC50 (second compound 94.9 pM) was 1.02 µM and the IC50 (second compound 0.0003 µM) was 2.54 µM. It also gave an IC50 (second compound 0.000949 µM) greater than 3 µM, an IC50 (second compound 0.003 µM) of less than 0.00949 µM and a viability, T/C [1] of 94.4%. For the same molecule, the viability, T/C [2] was 96.4%, the viability, T/C [3] was 93.8% and the viability, T/C [4] was 69.3%. The viability, T/C [5] was 39.7%, the viability, T/C [6] was 21.8% and the viability, T/C [7] was 103%. It also gave a viability, T/C [8] of 100%, a viability, T/C [9] of 95% and a viability, T/C [10] of 80.1%. The viability, T/C [11] was 51.4%, the viability, T/C [12] was 26.9% and the viability, T/C [13] was 110%. The viability, T/C [14] was 110%, the viability, T/C [15] was 102% and the viability, T/C [16] was 88.7%. For the same molecule, the viability, T/C [17] was 65.7%, the viability, T/C [18] was 47.4% and the viability, T/C [19] was 89.6%. The viability, T/C [20] was 88%, the viability, T/C [21] was 80.9% and the viability, T/C [22] was 87.3%. The viability, T/C [23] was 68.2%, the viability, T/C [24] was 52.7% and the viability, T/C [25] was 6.44%. It also gave a viability, T/C [26] of 6.85%, a viability, T/C [27] of 6.03% and a viability, T/C [28] of 8.32%. It also gave a viability, T/C [29] of 2.93% and a viability, T/C [30] of 0.8%.

For `Cn1ncnc1[C@H]1c2n[nH]c(=O)c3cc(F)cc(c23)N[C@@H]1c1ccc(F)cc1` + COc1cc2c(cc1O)CCNC21CSC2c3c(OC(C)=O)c(C)c4c(c3C(COC1=O)N1C(O)C3Cc5cc(C)c(OC)c(O)c5C(C21)N3C)OCO4, the IC50 (second compound 30 pM) was greater than 3 µM, the IC50 (second compound 94.9 pM) was greater than 3 µM and the IC50 (second compound 0.0003 µM) was greater than 3 µM. For the same molecule, the IC50 (second compound 0.000949 µM) was greater than 3 µM, the IC50 (second compound 0.003 µM) was less than 0.00949 µM and the viability, T/C [1] was 100%. The viability, T/C [2] was 99.3%, the viability, T/C [3] was 98.6% and the viability, T/C [4] was 97%. The viability, T/C [5] was 94.6%, the viability, T/C [6] was 92.4% and the viability, T/C [7] was 99.3%. The viability, T/C [8] was 99.3%, the viability, T/C [9] was 98.8% and the viability, T/C [10] was 98.6%. The viability, T/C [11] was 92.7%, the viability, T/C [12] was 99% and the viability, T/C [13] was 102%. The viability, T/C [14] was 97.5%, the viability, T/C [15] was 101% and the viability, T/C [16] was 93.5%. For the same molecule, the viability, T/C [17] was 92.2%, the viability, T/C [18] was 87.7% and the viability, T/C [19] was 92.3%. It also gave a viability, T/C [20] of 85.1%, a viability, T/C [21] of 82% and a viability, T/C [22] of 92.4%. For the same molecule, the viability, T/C [23] was 87%, the viability, T/C [24] was 71.2% and the viability, T/C [25] was 6.21%. For the same molecule, the viability, T/C [26] was 7.26%, the viability, T/C [27] was 4.58% and the viability, T/C [28] was 3.69%. For the same molecule, the viability, T/C [29] was 2.82% and the viability, T/C [30] was 1.01%.
